The nature of data set [1]: Hygroscopicity of HMB salts. Type of data set: physicochemical. As to conditions: compared with sodium or potassium salts.
A further data set relates to blood cholesterol. Nature of the data set: Human dose-response study, blood cholesterol, triglycerides and glucose (Example V, Table E). Type of data set: in vivo, humans. Conditions: for % Change After 8 Days, Cholesterol: linear effect p .21; for % Change After 8 Days, LDL: linear effect p .26; for % Change After 8 Days, Triglycerides: linear effect p .50; for % Change After 8 Days, HDL: linear effect p .85; for % Change After 8 Days, Glucose: linear effect p .99. The method, then: (§1) Higher dose levels than in Example IV of Ca-HMB were tested in humans. The objective was to obtain an indication of whether higher doses could be safely administered, and also whether higher doses might provide a greater reduction in total cholesterol and LDL cholesterol.
(§2) Normal humans were used in the study. Ca-HMB was administered in 250 mg capsules, and the subjects were instructed to take the capsules in 4 equal doses daily. No control of diet was attempted except they were instructed to eat as they normally would. On alternate days the subjects had blood drawn before the morning meal and before they took the morning HMB dose. Four subjects were studied for dose level of 05., 1, 2 and 4 grams per day.
(§3) Results from all samples of each subject were subjected to linear regression and the slope and intercept used to calculate the % change in concentration after 8 days on treatment. The percentage changes were then subjected to ANOVA-regression to determine if there was a linear effect of dosage on the parameter. The dose-response effect (p<) is listed in the linear effect column of Table E.

The nature of data set [2]: Human dose-response study, body weight and body fat (Example V, Table E). The format is in vivo, humans. As to conditions: for % Change After 8 Days, Body fat (%): linear effect NS; for % Change After 8 Days, Weight: linear effect p .32. The procedure:
as §1, §2, §3

The test system of another data set is aorta. Put plainly: Pig feeding study, aorta streaking (pre-atherosclerotic lesions) (Example III, Table C). The format is in vivo, pigs. Conditions: dietary .05%; 0 least severe to 3.2 most severe; control 1.87; HMB p .06, KIC ns. The procedure: (§4) A further large mammal study was carried out with pigs. Pigs comprise test animals which are more similar in certain respects to humans than ruminants.
(§5) Control: 60 g. of calcium
(§6) The pigs were housed in pens of two animals each and were allowed ad libitum access to food and water. Pigs were approximately 160 lbs. at the start of the experiment and were 240 lbs. at the end. All pigs were castrate males. At day 28 and day 43 of the experiment blood was collected from the anterior vena cava by venipuncture. Blood was collected into EDTA containing tubes, centrifuged and frozen until analyzed. At approximately 100 days of the experiment half of the animals (32) were slaughtered, and at 120 days the remaining 32 animals were slaughtered. At the time of slaughter the abdominal aorta was dissected out and external fat removed. The aorta was then split lengthwise and 1/2 fixed in formaldehyde for 48 hours. At this time aortas were removed, stretched over a 6 inch stick, washed in ethanol and stained with a lipid stain for 2 hours. After a 1 hour wash aortas were blotted and examined. All the aortas from a group were laid out on a white bench and arranged in order from least sever to most sever. The least sever had no dark red streaks on the aorta or around the small vertebral vessels leaving the aorta. The most sever lesions had multiple streaks in the middle of the aorta and dark red deposits in turbulent areas such as the branching of vessels from the aorta. The ordered aortas were then assigned a consecutive decimal number. The first (least severe) was assigned 0 and the most severe was assigned 3.2 Plasma cholesterol and triglycerides were measured by an enzyme-colorimetric assay (Sigma).
(§7) statistical analysis was accomplished by the general linear model procedure of the Statistical Analysis System (SAS). The model included the main effects of treatment and pen number. T-tests were conducted from the ANOVA standard error, to compare the HMB treatments to the control. […] It appeared that HMB can partially prevent the formation of pre-atherosclerotic lesions. No effect of KIC was noted relative to any parameter.

Data set [3] deals with plasma cholesterol and triglycerides. Put plainly: Pig feeding study, plasma cholesterol and triglycerides (Example III, Table C). Type of data set: in vivo, pigs. The procedure:
as §4, §5, §6, §7

Molecules are shown by their SMILES.

For the molecule `CC(C)(O)CC(=O)O` [Ca-HMB], in data set [1], the hygroscopicity result was “less hydroscopic than the sodium or potassium salts”. Also, the “% Change After 8 Days, Cholesterol” value with blood cholesterol (0.5 g daily) is recorded as 6%; in the data set with blood cholesterol (1.0 g daily), 1%; in the data set on blood cholesterol (2 g daily) it was -2%; with blood cholesterol (4 g daily), -4%. Besides, the “% Change After 8 Days, LDL” value is 2% with blood cholesterol (0.5 g daily), 0% in the data set with blood cholesterol (1.0 g daily), -3% in the data set with blood cholesterol (2 g daily) and -6% in the data set with blood cholesterol (4 g daily). Further, the “% Change After 8 Days, Triglycerides” value is 26% in the data set on blood cholesterol (0.5 g daily), -16% in the data set on blood cholesterol (1.0 g daily), -8% with blood cholesterol (2 g daily) and 36% in the data set with blood cholesterol (4 g daily). In addition, the “% Change After 8 Days, HDL” value came out at 0% with blood cholesterol (0.5 g daily), 6% with blood cholesterol (1.0 g daily), 1% with blood cholesterol (2 g daily) and 0% in the data set on blood cholesterol (4 g daily). In addition, the “% Change After 8 Days, Glucose” value in the data set on blood cholesterol (0.5 g daily) is reported as -7%; in the data set on blood cholesterol (1.0 g daily), 2%; in the data set on blood cholesterol (2 g daily), -5%; in the data set on blood cholesterol (4 g daily), -4%. Besides, the “% Change After 8 Days, Body fat (%)” value in data set [2] (0.5 g daily) is on record as 5%; in data set [2] (1.0 g daily) it was -18%; in data set [2] (2 g daily), -15%; in data set [2] (4 g daily), -1%. In addition, the “% Change After 8 Days, Weight” value is given as 1.7% in data set [2] (0.5 g daily), “-.3%” in data set [2] (1.0 g daily), “.5%” in data set [2] (2 g daily) and “.2%” in data set [2] (4 g daily).

As for `CC(C)CC(=O)C(=O)O` [KIC, ketoisocaproic acid, reference compound], in the data set with aorta, the “Aorta Streaking” value is reported as 1.48. In data set [3] (0.05% KIC in diet, aorta streaking, plasma cholesterol, triglycerides), the “effect relative to any parameter” value is recorded as “No effect”. Further, the “Plasma Triglycerides” value in data set [3] (dietary .05%, control 107, ns) was 106 mg %. Besides, in data set [3] (dietary .05%, control 135, HMB p .05, KIC ns), the “Plasma Cholesterol” value is given as 139 mg %.
